Reference: article PMC8406319, “The dCache Chemoreceptor TlpA of Helicobacter pylori Binds Multiple Attractant and Antagonistic Ligands via Distinct Sites” (mBio, 2021)
Where a name gives a salt, the structure may show the parent alone.

Columns and labels:
[1] = test system: TlpALBD; assay: Saturation transfer difference (STD) NMR; format: binding, Helicobacter pylori SS1; conditions: 25 μM TlpALBD, 2.5 mM ligand
Experimental: In the saturation transfer difference (STD) NMR experiment, the entire TlpALBD protein was first saturated at the protein resonances, and excess ligand was then added. As the ligand binds and releases from the receptor, saturation transfers from the protein to the bound ligand. This transfer appeared as an […] in the ligand intensity on epitopes that interacted with the TlpALBD protein. […] All STD NMR spectra were acquired in Shigemi tubes (Shigemi, USA) with a Bruker 600-MHz Advance spectrometer at 283 K using a 1^H-13^C-15^N gradient cryoprobe equipped with z-gradients. Protein resonances were saturated at −1.0 ppm (on-resonance) and 33 ppm (off-resonance), with a total saturation time of 2 s. A total of 512 scans per STD NMR experiment were acquired, and a Watergate sequence was used to suppress the residual HDO signal. A spin-lock filter with a 5-kHz strength and a duration of 10 ms was applied to suppress the protein background. On- and off-resonance spectra were stored and processed separately, and the final STD NMR spectra were obtained by subtracting the on- and off-resonance spectra. Control STD NMR experiments were performed identically in the absence of protein.

[2] = test system: WT TlpALBD; assay: SPR competition (A-B-A) binding assay; parameters: species or system Helicobacter pylori SS1; conditions: compounds at 10-fold their Kd
Experimental: The two ligands’ binding status can be classified as either independent, shared, or preferential shared sites. For independent sites, ligand A saturates all its binding sites, and ligand B then binds to its independent site; this mode produces additive effects on the SPR signal. […] Finally, it is also possible to have preferential shared sites where ligands share the same binding site, but the protein binds to one ligand preferentially when in equilibrium.
SPR competition assays were performed by using a Biacore S200 instrument and the A-B-A inject function ([56]). Competition A-B-A analyses were used to interrogate the specificity of the potential ligand binding site preferences of TlpALBD and to unravel the nature of the ligand-sensor interactions. This assay was designed to show if a cumulative response is observed when a second analyte (B) is flown across the bound protein saturated with the first analyte (A) (Fig. 4). […] The wild-type TlpALBD protein was immobilized as described above. […] All response data were normalized to a molecular weight of 100 Da for each analyte, allowing direct comparison of responses. Independent-site theoretical values are calculated by taking the sum of individual responses. Shared-site theoretical values are calculated by taking the sum of individual responses divided by the number of individual responses.

[3] = test system: TlpALBD point mutants; assay: SPR binding affinity of TlpALBD point mutants relative to WT; parameters: species or system Helicobacter pylori SS1; conditions: Y228A, Y252A, D254A vs WT
Source text: The periplasmic portion of TlpA (TlpALBD), amino acids 28 to 299, from Helicobacter pylori SS1 was cloned into a pBH4 expression vector (pBH4_TlpALBD) to generate an N-terminal 6×His-tagged construct, with a tobacco etch virus (TEV) protease site, under the control of isopropyl-β-D-thiogalactopyranoside (IPTG) ([19]). […] TlpALBD and all point mutants were purified as described previously by Sweeney et al. ([19]).
Purified TlpALBD was immobilized on a CM5 series S sensor chip, and binding affinities were tested using a Biacore S200 instrument (GE Healthcare) as described previously ([39], [57], [59]). Briefly, proteins were captured using an amine-coupling kit (GE Healthcare), in which the carboxylmethyl dextran matrix of the sensor chip was activated by the injection of a mixture of 0.2 M 1-ethyl-3-[(3-dimethylamino)propyl]-carbodiimide (EDC) and 0.05 M N-hydroxysuccinimide (NHS), followed by the neutralization of the remaining unreacted NHS ester groups by the injection of 1 M ethanolamine-HCl (pH 8.0). Purified TlpALBD was diluted in 10 mM sodium acetate buffer (pH 4.5) at a concentration of 100 μg/ml for immobilization to the chip. A total of 8,400 response units (RU) of TlpALBD were captured on flow cell 2. […] The data sets were analyzed using Biacore S200 evaluation software 2.0.2; sensorgrams were double-reference subtracted.

Row | SMILES | STD NMR signal on binding TlpALBD [1] | SPR response following initial saturation with glucosamine [2] | SPR response after saturation of TlpALBD with fumarate ([2]; compared to theoretical value) | Effect of proximal pocket residue mutations on binding affinity [3] | SPR response following saturation with arginine or fumarate [2] | SPR response after saturation of TlpALBD with arginine ([2]; compared to theoretical value)
1 | N=C(N)NCCC[C@H](N)C(=O)O [Arginine, L-arginine monohydrochloride] | significant STD NMR signals were observed | no additive response was observed | did not produce an additional response | – | – | –
2 | N[C@H]1C(O)O[C@H](CO)[C@@H](O)[C@@H]1O (stereo partly drawn) [Glucosamine, D(+)-glucosamine hydrochloride] | – | – | – | No proximal pocket residues affected the binding affinity | the response was not additive | –
3 | O=C(O)/C=C/C(=O)O [Fumarate, sodium fumarate] | significant STD NMR signal was detected | no additive response was observed | – | – | – | increased response (additive effect)
